Calls of active or inactive are those of the source. No rule for the calls is given here.
Test: blockers of an Epstein-Barr virus protein-peptide interaction – biochemical, fluorescence polarization, dose response (AID 1419)
Conditions: cell-free protein-peptide binding, 2 h; for fold change: measured here: P channel fold over control, at 54 µM

| Compound | IC50 | fold change |
| --- | --- | --- |
| CCCSCC(=O)Nc1ncc2c(n1)-c1ccccc1CC2 | 5.28 µM | 2.7 |
| O=C(O)COc1ccc(-c2nccc(-c3cccs3)n2)cc1 | > 54 µM (inactive) | 1.03 |
| CCNc1cccc2c1C(=O)N(C)C2=O | 0.96 µM | 24.2 |
| COc1cc(C2C=C(c3cccs3)Nc3ncnn32)cc(OC)c1OC (stereo not drawn) | < 0.42 µM | 13.5 |
| CCCn1c(O)c(N=Nc2ccc3ccccc3n2)c2ccccc21 | > 54 µM (inactive) | 1.5 |
| c1ccc(-c2ccnc3nc(N4CCN(c5ccccc5)CC4)nn23)cc1 | > 54 µM (inactive) | 0.987 |
| Cc1cc(C)c[n+](-c2nc3ccccc3nc2[N-]S(=O)(=O)c2ccc(Br)s2)c1 | 7.26 µM | 3.69 |
| CCn1c(SCc2ccc(C(=O)Nc3nccs3)cc2)nnc1-c1ccc(N)cc1 | > 54 µM (inactive) | 0.973 |
| Cc1cccc(-n2c(SCc3cc(=O)n4ccsc4n3)nc3ccccc32)c1 | 2.79 µM | 1.78 |
| CC(=O)Nc1ccc(NC2=Nc3ccccc3N3C2=Nc2c(c(C)nn2-c2ccccc2)C3c2ccccc2)cc1 (stereo not drawn) | 4.1 µM | 3.9 |
| COc1ccc(-c2nnc(Nc3ccc(S(=O)(=O)Nc4nccs4)cc3)c3ccccc23)cc1 | > 54 µM (inactive) | 1.09 |
| COc1ccc(/C=C2\N=C(c3c(-c4ccccc4)noc3C)OC2=O)cc1OC | 15.9 µM | 3.56 |
| Cc1ccc(NC(=O)/C(C#N)=C(\N)C(Cl)(Cl)Cl)nc1 | 0.53 µM | 13 |
| O=C1Nc2ccccc2/C1=C/c1cnc(-c2ccccc2)[nH]1 | 4.23 µM | 14.6 |
| Cc1nn(-c2ccccc2)c2c1C(c1ccc(O)c(O)c1)N1C(=N2)C(Nc2ccccc2)=Nc2ccccc21 (stereo not drawn) | 6.05 µM | 3.94 |
| CCOC(=O)C1C(=O)C=C(/C=C/c2ccc(N(C)C)cc2)CC1c1ccccc1 (stereo not drawn) | > 54 µM (inactive) | 7.93 |
| O=[N+]([O-])c1ccc(Sc2cccc3cccnc23)c2cccnc12 | 29.5 µM | 2.58 |
| CCCCNc1c2c3c(cccc3n(C)c1=O)C(=O)c1ccccc1-2 | < 0.42 µM | 150 |
| N#CC1(C#N)CC(C=O)=C(N)C1(C#N)CC(=O)C12CC3CC(CC(C3)C1)C2 (stereo not drawn) | > 54 µM (inactive) | 0.933 |
| COc1ccc(C2C=C(c3ccc(Cl)cc3)Nc3nc(NC(C)=O)nn32)cc1 (stereo not drawn) | 5.59 µM | 3.32 |
| O=C1c2cccc3c([N+](=O)[O-])ccc(c23)C(=O)N1CC1CCCO1 (stereo not drawn) | 13.8 µM | 2.37 |
| O=C(ONc1ccc(N=NC(=O)c2ccccc2O)cc1)c1ccccc1 | > 54 µM (inactive) | 1.09 |
| COC(=O)CCCC1=CC2=CC(=O)C(C)(OC(=O)c3cccs3)C(=O)C2=CN1c1cccc(C#N)c1 (stereo not drawn) | > 54 µM (inactive) | 1.49 |
| COc1ccc(C(=O)Nc2cccc(-c3cc4ccccc4oc3=O)c2)cc1[N+](=O)[O-] | > 54 µM (inactive) | 0.607 |
| C/C(=N/OC(=O)c1c(-c2c(Cl)cccc2Cl)noc1C)c1cnccn1 | > 54 µM (inactive) | 0.997 |
| Cc1ccn(C(=O)c2ccc(NC(=O)C3CCCCC3)cc2)n1 | > 54 µM (inactive) | 0.987 |
| CCN(CC)S(=O)(=O)c1ccc(C(=O)/C=C/c2ccc(-c3ccc([N+](=O)[O-])cc3)o2)cc1 | 2.97 µM | 12.8 |

| Compound | IC50 | fold change |
| --- | --- | --- |
| CSc1nc(N(C)CCO)c2sc3nc(-c4ccco4)c4c(c3c2n1)CCC4 | > 54 µM (inactive) | 1.04 |
| O=S(=O)(Nc1nc2ccccc2nc1-[n+]1cccc(N=C([O-])c2ccccc2Cl)c1)c1ccccc1 | 1.13 µM | 2.79 |
| O=C(Cn1cnc2scc(-c3cccc([N+](=O)[O-])c3)c2c1=O)NCc1ccco1 | > 54 µM (inactive) | 1.04 |
| COc1ccc(C(CC(=O)N2CCCC2)c2c(OC)cc(OC)c3c(-c4ccccc4)cc(=O)oc23)cc1 (stereo not drawn) | > 54 µM (inactive) | 0.95 |
| COc1ccc(NC(=O)CCl)cn1 | 2.57 µM | 2.89 |
| COCCN=c1scc(-c2ccco2)n1/N=C/c1ccc(O)c(O)c1O | 12 µM | 1.04 |
| COCCOC(=O)c1sc(=S)n(CCOC)c1N | 3.85 µM | 2.45 |
| c1ccc(-c2cn3nc4c(nc3n2)CCCC4)cc1 | 4.56 µM | 2.57 |
| Cc1ccc(N2C(=O)c3cccc4c(N5CCN(C)CC5)ccc(c34)C2=O)c2cccnc12 | < 0.42 µM | 31.9 |
| O=c1oc2cc(O)ccc2cc1-c1nc2c(s1)CCc1ccccc1-2 | < 0.42 µM | 37.6 |
| COC(=O)c1cc2c(C)c(C)c3ccccn3c-2c1C(=O)OC | 3.61 µM | 2.38 |
| CC(=O)Oc1ccc(C(=O)Nc2cccc(C(=O)c3cccc(NC(=O)c4ccc(OC(C)=O)cc4)c3)c2)cc1 | > 54 µM (inactive) | 0.997 |
| CC1=CC(=C(C#N)c2nc3ccccc3s2)C=C(C)N1CC1CCCO1 (stereo not drawn) | 3.9 µM | 9.43 |
| Cn1c(=O)c(NCCc2ccccc2)c2c3c(cccc31)C(=O)c1ccccc1-2 | < 0.42 µM | 226 |
| Cn1c(=O)c(Nc2ccc(Cl)cc2)c2c3c(cccc31)C(=O)c1ccccc1-2 | < 0.42 µM | 25.4 |
| CCSc1nc2sc3c(c2c(=O)[nH]1)CCCC3 | > 54 µM (inactive) | 1.05 |
| Cc1ccc(OCCn2c(C3CC(=O)N(Cc4ccccc4)C3)nc3ccccc32)cc1 (stereo not drawn) | > 54 µM (inactive) | 1.15 |
| CCOc1cccc(C2C(C(=O)c3ccc(C)o3)=C(O)C(=O)N2c2nccs2)c1 (stereo not drawn) | < 0.42 µM | 8.6 |
| CC(=O)Nc1ccc2nc3c(=O)n(C)c(=O)n(C)c3nc2c1 | 1 µM | 4.35 |
| O=[N+]([O-])c1ccccc1/C=C/C=N/n1c(-c2ccc(Cl)cc2)n[nH]c1=S | > 54 µM (inactive) | 0.947 |
| CC1=CC(=C(C#N)c2nc3ccccc3s2)C=C(C)N1Cc1ccco1 | 3.8 µM | 15.7 |
| CCN(CC)c1ccc(/C=C/c2cc(-c3ccccc3)c3ccccc3n2)cc1 | 13.5 µM | 80.7 |
| O=C(CSc1ccccn1)Nc1ccc2c(c1)C(=O)c1ccccc1C2=O | 19.4 µM | 0.783 |
| CN1C(=O)/C(=C\N2CCc3ccccc32)C(=O)NC1=S | > 54 µM (inactive) | 1.14 |
| CCc1nn2c(=O)cc(COc3ccc(/C=C4\C(=N)N5N=C(C)SC5=NC4=O)cc3)nc2s1 | 16.6 µM | 1.14 |
| CCN(CC)c1ccc2cc(-c3nc(-c4ccc(OC)cc4)cs3)c(=O)oc2c1 | < 0.42 µM | 58 |
| CCN1C(=O)/C(=C/C2=Cc3ccccc3OC2C)SC1=S (stereo not drawn) | 17.2 µM | 5.33 |

| Compound | IC50 | fold change |
| --- | --- | --- |
| CC(C)NC(=O)c1sc2nc(-c3cccs3)cc(-c3cccs3)c2c1N | 2.1 µM | 15.4 |
| O=C1c2ccccc2-c2ncnc3c(N4CCOCC4)cc(N4CCOCC4)c1c23 | > 54 µM (inactive) | 1.1 |
| CN1CC=C2C(C#N)=C(N)C(C#N)(C#N)C(c3cccc(Cl)c3Cl)C2C1 (stereo not drawn) | 1.44 µM | 7.33 |
| Cc1cc(C=C2C(=O)NC(=S)NC2=O)c(C)n1-c1ccc2c(c1)OCO2 | 43.5 µM (inactive) | 2.39 |
| COc1ccc(C(CC(=O)N2CCOCC2)c2c(OC)cc(OC)c3c(-c4ccccc4)cc(=O)oc23)cc1 (stereo not drawn) | > 54 µM (inactive) | 0.973 |
| C/C(N)=C(/C#N)C(=O)CSc1nnc(Nc2ccccc2)s1 | > 54 µM (inactive) | 0.95 |
| Cc1ccc2cc(C=C(C#N)C#N)c(N3CCCCC3)nc2c1 | 2.98 µM | 24 |
| O=C1C2C3C=CC(C3=C(c3ccccc3)c3ccccc3)C2C(=O)N1Cc1ccccc1 (stereo not drawn) | > 54 µM (inactive) | 0.99 |
| COc1ccc(Cn2c3ccc(OC)cc3c3nc4ccccc4nc32)cc1 | 3.27 µM | 3.38 |
| C(=N\N1CCOCC1)/c1nc(-c2ccccc2)n2ccccc12 | 26.6 µM | 4.71 |
| CCOC(=O)Cc1csc(SCC(=O)Nc2sc3c(c2C(N)=O)CCC3)n1 | > 54 µM (inactive) | 1.09 |
| CCCCOc1[nH]c2nc(-c3ccco3)n(Cc3ccco3)c(=N)c2c1C#N | > 54 µM (inactive) | 1.17 |
| CC(C)c1nnc(N2C(=O)C(O)=C(C(=O)c3cccs3)C2c2ccccc2)s1 (stereo not drawn) | < 0.42 µM | 4.97 |
| COc1ccc2c(C=Nc3c(C)n(C)n(-c4ccccc4)c3=O)c(O)n(Cc3ccco3)c(=O)c2c1 | 4.28 µM | 3.39 |
| COc1cc(C2C(C#N)=C(N)OC3=C2C(=O)CCC3)c([N+](=O)[O-])cc1OC (stereo not drawn) | > 54 µM (inactive) | 1.22 |
| COC(=O)c1ccccc1NC(=O)CCS(=O)(=O)c1ccc(Br)cc1 | 12.2 µM | 1.08 |
| O=C1CCNc2ccc(-c3ccccc3)cc21 | < 0.42 µM | 32.7 |
| NC(=O)c1c(NC(=O)CSc2nnc(-c3ccco3)n2-c2ccccc2)sc2c1CCC2 | 46 µM (inactive) | 0.977 |
| O=c1[nH]n2c(=O)c3c([nH]c2c1N=Nc1cccc(Cl)c1)CCC3 | > 54 µM (inactive) | 0.94 |
| COc1ccc(/C(O)=C/c2nc3ccccc3n(-c3ccccc3)c2=O)cc1 | > 54 µM (inactive) | 17 |
| Cn1c(/N=C/c2c(O)ccc3ccccc23)nc2ccccc21 | 3.17 µM | 41.9 |
| CCOC(=O)N1CCC(Nc2nc3ccccc3nc2NS(=O)(=O)c2ccc(Cl)cc2)CC1 | > 54 µM (inactive) | 1.39 |
| CCn1nc(-c2ccccc2)nc2c(=O)n(C)c(=O)nc1-2 | 4.3 µM | 4.56 |
| Fc1ccc(/C=N/NC2=Nc3cccc4cccc2c34)cc1 | 7.4 µM | 3.32 |
| COC(=O)C(Nc1nccs1)(OC)C(F)(F)F (stereo not drawn) | 13.8 µM | 2.09 |
